Where “and” joins values, the source holds several entries; their conditions need not be identical. Equal entries are not always repeated.
Tested on: SUM149PT spheroids with HUVEC/MSC, viability
Test: Anticancer human tumor SUM149PT cell line growth inhibition [GQUAD];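 also: spheroids exposed to drugs for seven days before readout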;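 as to viability, T/C: percent viability relative to DMSO vehicle control taken as 100%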
Conditions: for viability, T/C: stronger effect = lower value
Text: DNA G-quadruplex Stabilizer Agents in Combinations in Complex Spheroids
A high-throughput screen of multi-cell type tumor spheroids was designed to identify active combinations of DNA G-quadruplex stabilizer agents and targeted small molecules. Complex spheroids include a stromal component modeled by human endothelial cells (HUVEC) and fibroblasts modeled by human mesenchymal stem cells (MSCs). The concentration ranges selected for each drug and investigational agent were based upon clinically achievable concentrations if the clinical Cmax of the agent was known.
Compounds. The drugs and investigational agents: pidnarulex (CX-5461; NSC782164), APTO-253 (NSC789042), BRACO-19 (NSC847499), peposertib (NSC802822), ceralasertib (NSC780249), elimusertib (NSC800525), camonsertib (NSC841442), AZD-1390 (NSC803789), olaparib (NSC753686), talazoparib (NSC767125), ART-558 (NSC835418), sotorasib (NSC818433), MRTX-1133 (NSC836407), SN-38 (NSC673596), topotecan (NSC609699), etoposide (NSC141540), doxorubicin (NSC123127), gemcitabine (NSC613327), 5-fluorouracil (NSC19893), paclitaxel (NSC125973), vemurafenib (NSC761431), panobinostat (NSC761190), R-306465 (JNJ-16241199; NSC773264), adavosertib (NSC754352), TP-3654 (NSC805149), carboplatin (NSC241240), KSQ-4279 (NSC840948), and staurosporine (NSC755774) were obtained from the National Cancer Institute (NCI) Developmental Therapeutics Program Chemical Repository (34). The FDA-approved anticancer drug set is available from the NCI Developmental Therapeutics Program. […] The stock solutions were prepared in dimethyl sulfoxide (DMSO, Sigma-Aldrich, St. Louis, MO, cat. D2650) at 800-fold the tested concentration and stored at -70 degrees C prior to their use. All drugs and investigational agents were tested over a range starting from a high concentration at or near the clinical Cmax and decreasing in half-log increments. If the clinical Cmax for an agent had not been determined, the highest concentration tested was 10 microM.
2.3 Cell Culture. All cells were maintained in an incubator at 37 degrees C and 5% CO2 with 95% humidity. The PDC lines were cultured according to standard operating procedures established by the NCI PDMR. All PDCs were thawed and cultured in Matrigel-coated flasks prepared with a working solution of 1X Ham's F-12 nutrient mix, without supplementation (Invitrogen, cat. 11765054), 100 U/mL penicillin-streptomycin (Invitrogen, cat. 15140122), and 2.5% Matrigel (Corning Inc., cat. 354248) for the first three passages. The 857933-349-R-J2-PDC line was cultured in 6C/Colon 1B media, which includes advanced DMEM/F-12 (Thermo Fisher Scientific, cat. 12634028), 10 mM HEPES (Thermo Fisher Scientific, cat. 15630080), 1X GlutaMAX supplement (Thermo Fisher Scientific, cat. 35050061), 0.1 mg/mL primocin (InvivoGen, cat. ant-pm-2), 10% defined fetal bovine serum, heat inactivated (HyClone Laboratories Inc., cat. SH30070.03HI), 50% L-WRN conditioned media (ATCC, cat. CRL-3276), 1.25 mM N-Acetyl-L-cysteine (Sigma-Aldrich, cat. A9165), 10 mM nicotinamide (Sigma-Aldrich, cat. N0636), 1X B-27 supplement (Thermo Fisher Scientific, cat. 17504044), 1X N-2 supplement (Thermo Fisher Scientific, cat. 17502048), 10 microM Y-27632 dihydrochloride (Tocris Bioscience, cat. 1254), and 50 ng/mL human EGF recombinant protein (Thermo Fisher Scientific, cat. PHG0311). The 485176-168-R4-J1-PDC line was cultured in Panc media, which includes all 6C/Colon 1B media components plus 100 ng/mL human FGF-10 (Thermo Fisher Scientific, cat. 100-26), 500 nM SB-431542 (Selleckchem, cat. S1067), and gastrin (Tocris, cat. 3006).
[…]

## CC(C)(O)C1CCC(Nc2ccc3ncc(-c4cccc(C(F)(F)F)c4)n3n2)CC1 (stereo not given)
Compound 0.0316 µM
  viability, T/C: 98.3% and 102% and 86%
Compound 0.1 µM
  viability, T/C: 86.1% and 89.2% and 65.1%
Compound 0.316 µM
  viability, T/C: 76.1% and 82.5% and 72.4%
Compound 1 µM
  viability, T/C: 63.5% and 63.8% and 49.3%
Compound 3.16 µM
  viability, T/C: 47.9% and 49% and 37.8%
Compound 10 µM
  viability, T/C: 61.8% and 58% and 41.8%
Curve of compound
  IC50: > 10000 nM and 1170 nM

## C=CCn1c(=O)c2cnc(Nc3ccc(N4CCN(C)CC4)cc3)nc2n1-c1cccc(C(C)(C)O)n1
Compound 0.0316 µM
  viability, T/C: 98.3% and 95.2% and 87.7%
Compound 0.1 µM
  viability, T/C: 73% and 67% and 53.4%
Compound 0.316 µM
  viability, T/C: 32% and 32.6% and 26.9%
Compound 1 µM
  viability, T/C: 20.9% and 19.1% and 16.4%
Compound 3.16 µM
  viability, T/C: 12.8% and 11.1% and 8.08%
Compound 10 µM
  viability, T/C: 8.94% and 7.14% and 6.33%
Curve of compound
  IC50: 196 nM and 180 nM and 115 nM

## CC1COCCN1c1cc(C2(S(C)(=N)=O)CC2)nc(-c2ccnc3[nH]ccc23)n1 (stereo not given)
Compound 0.0316 µM
  viability, T/C: 95.4% and 101% (2×)
Compound 0.1 µM
  viability, T/C: 98.2% and 91% and 98.3%
Compound 0.316 µM
  viability, T/C: 96% and 99.7% and 94.1%
Compound 1 µM
  viability, T/C: 86.7% and 83.5% and 77.8%
Compound 3.16 µM
  viability, T/C: 39% and 44.6% and 81.2%
Compound 10 µM
  viability, T/C: 24.2% and 26.8% and 16.7%
Curve of compound
  IC50: 2420 nM and 2690 nM and 5210 nM

## Cn1ncnc1[C@H]1c2n[nH]c(=O)c3cc(F)cc(c23)N[C@@H]1c1ccc(F)cc1
Compound 0.000999 µM
  viability, T/C: 98.5% and 103% and 109%
Compound 0.00316 µM
  viability, T/C: 97.1% and 96.5% and 102%
Compound 0.00999 µM
  viability, T/C: 97.5% and 93.8% and 91.6%
Compound 0.0316 µM
  viability, T/C: 81.4% and 91.5% and 83.6%
Compound 0.0999 µM
  viability, T/C: 68.1% (2×) and 91.5%
Compound 0.316 µM
  viability, T/C: 54.4% and 76.8% and 53.9%
Curve of compound
  IC50: > 316 nM

## Nc1ccn(C2OC(CO)C(O)C2(F)F)c(=O)n1 (stereo not given) + CN(C)c1ccc(Nc2c3ccc(NC(=O)CCN4CCCC4)cc3nc3cc(NC(=O)CCN4CCCC4)ccc23)cc1
Curve of first compound, second compound 0.0316 µM
  IC50: 110 nM
Curve of first compound, second compound 0.1 µM
  IC50: 173 nM
Curve of first compound, second compound 0.316 µM
  IC50: 128 nM
Curve of first compound, second compound 1 µM
  IC50: 96.5 nM
Curve of first compound, second compound 3.16 µM
  IC50: 62.8 nM
Curve of first compound, second compound 10 µM
  IC50: 42.1 nM
Second compound 0.0316 µM, first compound 0.0316 µM
  viability, T/C: 87.9%
Second compound 0.0316 µM, first compound 0.1 µM
  viability, T/C: 51%
Second compound 0.0316 µM, first compound 0.316 µM
  viability, T/C: 34.6%
Second compound 0.0316 µM, first compound 1 µM
  viability, T/C: 27.2%
Second compound 0.0316 µM, first compound 3.16 µM
  viability, T/C: 25.9%
Second compound 0.0316 µM, first compound 10 µM
  viability, T/C: 20.8%
Second compound 0.1 µM, first compound 0.0316 µM
  viability, T/C: 80.2%
Second compound 0.1 µM, first compound 0.1 µM
  viability, T/C: 59.7%
Second compound 0.1 µM, first compound 0.316 µM
  viability, T/C: 39.6%
Second compound 0.1 µM, first compound 1 µM
  viability, T/C: 26.7%
Second compound 0.1 µM, first compound 3.16 µM
  viability, T/C: 23.7%
Second compound 0.1 µM, first compound 10 µM
  viability, T/C: 20.8%
Second compound 0.316 µM, first compound 0.0316 µM
  viability, T/C: 68.1%
Second compound 0.316 µM, first compound 0.1 µM
  viability, T/C: 55.3%
Second compound 0.316 µM, first compound 0.316 µM
  viability, T/C: 34.7%
Second compound 0.316 µM, first compound 1 µM
  viability, T/C: 26.6%
Second compound 0.316 µM, first compound 3.16 µM
  viability, T/C: 25.6%
Second compound 0.316 µM, first compound 10 µM
  viability, T/C: 15.8%
Second compound 1 µM, first compound 0.0316 µM
  viability, T/C: 65.8%
Second compound 1 µM, first compound 0.1 µM
  viability, T/C: 51.2%
Second compound 1 µM, first compound 0.316 µM
  viability, T/C: 32.7%
Second compound 1 µM, first compound 1 µM
  viability, T/C: 27.9%
Second compound 1 µM, first compound 3.16 µM
  viability, T/C: 21.4%
Second compound 1 µM, first compound 10 µM
  viability, T/C: 16.5%
Second compound 3.16 µM, first compound 0.0316 µM
  viability, T/C: 65.4%
Second compound 3.16 µM, first compound 0.1 µM
  viability, T/C: 39.8%
Second compound 3.16 µM, first compound 0.316 µM
  viability, T/C: 24.3%
Second compound 3.16 µM, first compound 1 µM
  viability, T/C: 21.6%
Second compound 3.16 µM, first compound 3.16 µM
  viability, T/C: 17.8%
Second compound 3.16 µM, first compound 10 µM
  viability, T/C: 14.8%
Second compound 10 µM, first compound 0.0316 µM
  viability, T/C: 55.1%
Second compound 10 µM, first compound 0.1 µM
  viability, T/C: 35.7%
Second compound 10 µM, first compound 0.316 µM
  viability, T/C: 25%
Second compound 10 µM, first compound 1 µM
  viability, T/C: 20.9%
Second compound 10 µM, first compound 3.16 µM
  viability, T/C: 18.8%
Second compound 10 µM, first compound 10 µM
  viability, T/C: 13.4%

Reference: PubChem BioAssay AID2060484 (Molecular Pharmacology Branch, DTP, NCI, 2025)
